Assay results as given in patent US8084610B2, “Compositions and methods for detecting and treating tumors containing acidic areas” (priority 2006, dated 2011).

What was measured:
[1] = test system: tumors; conditions: tumor-bearing mice; reduction of about 0.3 pH units in the tumors; cited from earlier work
[2] = Titration assay of sodium salts with 5 M HCl (pKa / effective pKa)
Protocol: Typically new structures that may be suitable as advanced pH-switch components are first assessed for their pKa value in normal saline. This entails preparing the sodium salt form of the structure and dissolving it at a concentration of 20 milliMolar in 15 ml of 0.15 Molar NaCl (deareated to remove CO2). […] A plot of pH versus volume of added HCl affords the effective pKa value. It is also desirable to carry out this same titration in methanol/water (1:1 by vol) in order to get an estimate of the pKa value independent of insolubility effects.
The compound in FIG. 12a was prepared by reacting camphoric anhydride with dimethylamine. The compound in FIG. 12b was prepared by reacting camphoric anhydride with ethylamine. The sodium salts of compounds shown in FIG. 12a (designed to form an internal acid-specific H-bond) and 12b (designed to form non-acid-specific H-bonds) were titrated in aqueous solution.
The two compounds in FIG. 15 were prepared by reacting the respective anhydrides with dimethylamine, and then the sodium salts titrated in methanol/water, 1:1 by volume—in order to preclude insolubility effects impacting the titration curve.
The methyl ester of isonipocotic acid was alkylated with bromopropane and then the resultant tertiary amine oxidized to the N-oxide with meta-Chlorobenzoylperoxide. Finally, the ester was cleaved with aqueous sodium hydroxide to give structure iii in FIG. 16b. This product in its sodium salt form was titrated in water.

For `O=C(O)CCCc1ccc(N(CCCl)CCCl)cc1` [Chlorambucil], the “improvement in tumor growth delay” value [1] is listed as 1.7 fold.
In the case of `CN(C)C(=O)C=CC(=O)O` [FIG. 14b], the “pKa value (mid-point of the transition between salt and acid)” value ([2]; sodium salt titrated with HCl in water / aqueous solution) is reported as “below 3.0”.
With `CCC[N+]1([O-])CCC(C(=O)O)CC1` (stereo not shown) [structure iii in FIG. 16b, N-oxide of N-propylisonipocotic acid] the “first derivative of titration plot, minimum attributed to N-oxide moiety (pH)” value ([2]; sodium salt titrated in water) was roughly 4.0 and the “first derivative of titration plot, other minimum (pH), attributed to internal low-barrier H-bond” value ([2]; sodium salt titrated in water) was roughly 5.6.
